Data from patent US20230114153A1, “IMIDAZOLYL THIOPEHENE SULFONYL CARBAMATES FOR USE IN THE TREATMENT OF DISEASES ASSOCIATED WITH ANGIOTENSIN II” (Vicore Pharma AB, priority 2020, published 2023).

Key:
CYP2C8 = molecular target: T1, CYP2C8 (Homo sapiens, UniProt P10632); assay: CYP inhibition in human liver microsomes, CYP2C8; format: in vitro ADME; settings: probe paclitaxel and amodiaquine, substrates paclitaxel and amodiaquine, read-out: CYP2C8 Inh %
T1 construct: incubated with human liver microsomes; tissue Eurofins (contract protocol) ITEMG232; host or cells: human liver microsomes
T1 sequence (P10632 1-490): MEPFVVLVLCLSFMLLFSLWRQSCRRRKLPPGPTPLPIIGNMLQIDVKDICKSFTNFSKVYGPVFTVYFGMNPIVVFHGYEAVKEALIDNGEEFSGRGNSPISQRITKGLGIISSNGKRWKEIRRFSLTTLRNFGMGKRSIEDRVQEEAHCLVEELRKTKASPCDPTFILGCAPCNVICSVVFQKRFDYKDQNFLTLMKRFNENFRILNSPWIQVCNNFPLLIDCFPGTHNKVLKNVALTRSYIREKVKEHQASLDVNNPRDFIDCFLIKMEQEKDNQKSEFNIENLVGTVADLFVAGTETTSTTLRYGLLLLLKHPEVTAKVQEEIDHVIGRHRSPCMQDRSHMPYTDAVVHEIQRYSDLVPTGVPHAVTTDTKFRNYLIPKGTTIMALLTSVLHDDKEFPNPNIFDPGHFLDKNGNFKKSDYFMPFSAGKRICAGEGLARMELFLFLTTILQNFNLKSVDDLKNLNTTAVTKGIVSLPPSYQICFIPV
Description: (§1) The following substrates were used; CYP1A phenacetin, CYP2B6 bupropion, CYP2C8 paclitaxel and amodiaquine, CYP2C9 diclofenac, CYP2C19 omeprazole, CYP2D6 dextromethorphan, CYP3A midazolam and testosterone. At the end of the incubation, the formation of metabolite was monitored by HPLC-MS/MS as the peak area response.

[1] = molecular target: T2, human recombinant AT2 receptor (Homo sapiens, UniProt P50052); assay: Binding to human recombinant AT2 receptor, radiometric scintillation assay (Eurofins ITEM26); settings: ligand 125I CGP 42112A, 2-4 h at 37° C., tested at 1, 10, 100 and 1000 nM
T2 construct: Eurofins (contract protocol) ITEM26
T2 sequence (P50052 1-363): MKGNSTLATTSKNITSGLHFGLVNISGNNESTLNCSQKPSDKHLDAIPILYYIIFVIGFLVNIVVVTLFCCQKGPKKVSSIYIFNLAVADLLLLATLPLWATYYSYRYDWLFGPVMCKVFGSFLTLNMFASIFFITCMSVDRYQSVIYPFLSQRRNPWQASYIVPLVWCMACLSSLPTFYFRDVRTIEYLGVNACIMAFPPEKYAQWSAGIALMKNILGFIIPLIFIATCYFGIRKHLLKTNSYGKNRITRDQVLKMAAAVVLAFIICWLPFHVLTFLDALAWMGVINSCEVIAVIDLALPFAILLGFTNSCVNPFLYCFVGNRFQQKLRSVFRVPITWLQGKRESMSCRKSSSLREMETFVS

CYP1A = molecular target: T3, CYP1A (Homo sapiens, UniProt P05177); assay: CYP inhibition in human liver microsomes, CYP1A; format: in vitro ADME; settings: probe phenacetin, substrate phenacetin, read-out: CYP1A Inh %
T3 construct: incubated with human liver microsomes; tissue Eurofins (contract protocol) ITEMG232; host or cells: human liver microsomes
T3 sequence (P05177 1-516): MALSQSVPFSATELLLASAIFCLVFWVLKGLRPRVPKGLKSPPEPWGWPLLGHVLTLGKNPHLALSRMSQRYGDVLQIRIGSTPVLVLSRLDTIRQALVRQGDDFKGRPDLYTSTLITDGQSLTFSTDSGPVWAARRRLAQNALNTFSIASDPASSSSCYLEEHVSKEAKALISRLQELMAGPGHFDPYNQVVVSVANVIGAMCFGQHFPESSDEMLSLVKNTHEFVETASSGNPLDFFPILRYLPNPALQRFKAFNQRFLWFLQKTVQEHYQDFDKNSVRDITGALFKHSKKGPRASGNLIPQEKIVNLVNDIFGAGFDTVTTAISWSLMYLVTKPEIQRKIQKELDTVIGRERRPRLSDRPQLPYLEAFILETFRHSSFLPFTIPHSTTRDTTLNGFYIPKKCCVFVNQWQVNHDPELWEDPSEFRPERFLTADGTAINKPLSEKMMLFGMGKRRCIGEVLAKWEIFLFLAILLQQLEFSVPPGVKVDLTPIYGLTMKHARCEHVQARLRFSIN
Description: as §1

CYP2C9 = molecular target: T4, CYP2C9 (Homo sapiens, UniProt P11712); assay: CYP inhibition in human liver microsomes, CYP2C9; format: in vitro ADME; settings: probe diclofenac, substrate diclofenac, read-out: CYP2C9 Inh %
T4 construct: incubated with human liver microsomes; tissue Eurofins (contract protocol) ITEMG232; host or cells: human liver microsomes
Description: as §1

CYP2C19 = molecular target: T5, CYP2C19 (Homo sapiens, UniProt P33261); assay: CYP inhibition in human liver microsomes, CYP2C19; format: in vitro ADME; settings: probe omeprazole, substrate omeprazole, read-out: CYP2C19 Inh %
T5 construct: incubated with human liver microsomes; tissue Eurofins (contract protocol) ITEMG232; host or cells: human liver microsomes
Description: as §1

CYP2B6 = molecular target: T6, CYP2B6 (Homo sapiens, UniProt P20813); assay: CYP inhibition in human liver microsomes, CYP2B6; format: in vitro ADME; settings: probe bupropion, substrate bupropion, read-out: CYP2B6 Inh %
T6 construct: incubated with human liver microsomes; tissue Eurofins (contract protocol) ITEMG232; host or cells: human liver microsomes
T6 sequence (P20813 1-491): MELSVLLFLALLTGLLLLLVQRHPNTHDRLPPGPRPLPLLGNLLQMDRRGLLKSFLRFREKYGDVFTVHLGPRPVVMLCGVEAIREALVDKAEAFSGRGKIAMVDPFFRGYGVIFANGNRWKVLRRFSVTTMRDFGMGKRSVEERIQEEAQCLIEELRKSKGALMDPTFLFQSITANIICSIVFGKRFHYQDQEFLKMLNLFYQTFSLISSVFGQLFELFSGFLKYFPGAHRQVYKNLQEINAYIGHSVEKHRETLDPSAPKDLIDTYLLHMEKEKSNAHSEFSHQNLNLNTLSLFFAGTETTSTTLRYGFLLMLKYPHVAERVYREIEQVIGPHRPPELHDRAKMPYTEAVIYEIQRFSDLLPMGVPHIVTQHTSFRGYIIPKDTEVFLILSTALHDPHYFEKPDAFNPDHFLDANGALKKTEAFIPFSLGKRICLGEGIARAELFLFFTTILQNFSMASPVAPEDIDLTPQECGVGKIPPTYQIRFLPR
Description: as §1

CYP2D6 = molecular target: T7, CYP2D6 (Homo sapiens, UniProt P10635); assay: CYP inhibition in human liver microsomes, CYP2D6; format: in vitro ADME; settings: probe dextromethorphan, substrate dextromethorphan, read-out: CYP2D6 Inh %
T7 construct: incubated with human liver microsomes; tissue Eurofins (contract protocol) ITEMG232; host or cells: human liver microsomes
Description: as §1

CYP3A4 = molecular target: T8, CYP3A4 (Homo sapiens, UniProt P08684); assay: CYP inhibition in human liver microsomes, CYP3A4 (midazolam); format: in vitro ADME; settings: probe midazolam, substrate midazolam, read-out: CYP3A4 midazolam Inh %
T8 construct: incubated with human liver microsomes; tissue Eurofins (contract protocol) ITEMG232; host or cells: human liver microsomes
Description: as §1

CYP3A4&5 = assay: CYP inhibition in human liver microsomes, CYP3A4&5 (testosterone); format: in vitro ADME; settings: probe testosterone, substrate testosterone, read-out: CYP3A4&5 testosterone Inh %
Description: as §1

T8 sequence (P08684 whole entry): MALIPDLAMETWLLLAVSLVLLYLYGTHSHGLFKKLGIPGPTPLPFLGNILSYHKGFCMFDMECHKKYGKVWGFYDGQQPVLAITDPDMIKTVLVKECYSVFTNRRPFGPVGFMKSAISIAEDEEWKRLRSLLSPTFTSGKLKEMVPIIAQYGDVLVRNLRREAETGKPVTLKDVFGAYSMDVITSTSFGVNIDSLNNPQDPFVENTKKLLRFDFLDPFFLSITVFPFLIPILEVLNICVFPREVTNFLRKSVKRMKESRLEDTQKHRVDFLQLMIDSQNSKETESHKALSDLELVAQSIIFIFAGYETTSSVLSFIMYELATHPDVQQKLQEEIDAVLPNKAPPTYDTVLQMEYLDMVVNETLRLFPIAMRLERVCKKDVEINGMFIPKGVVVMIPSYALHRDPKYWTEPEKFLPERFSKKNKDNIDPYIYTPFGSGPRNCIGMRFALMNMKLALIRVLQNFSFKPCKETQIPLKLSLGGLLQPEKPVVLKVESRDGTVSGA
T7 sequence (P10635 whole entry): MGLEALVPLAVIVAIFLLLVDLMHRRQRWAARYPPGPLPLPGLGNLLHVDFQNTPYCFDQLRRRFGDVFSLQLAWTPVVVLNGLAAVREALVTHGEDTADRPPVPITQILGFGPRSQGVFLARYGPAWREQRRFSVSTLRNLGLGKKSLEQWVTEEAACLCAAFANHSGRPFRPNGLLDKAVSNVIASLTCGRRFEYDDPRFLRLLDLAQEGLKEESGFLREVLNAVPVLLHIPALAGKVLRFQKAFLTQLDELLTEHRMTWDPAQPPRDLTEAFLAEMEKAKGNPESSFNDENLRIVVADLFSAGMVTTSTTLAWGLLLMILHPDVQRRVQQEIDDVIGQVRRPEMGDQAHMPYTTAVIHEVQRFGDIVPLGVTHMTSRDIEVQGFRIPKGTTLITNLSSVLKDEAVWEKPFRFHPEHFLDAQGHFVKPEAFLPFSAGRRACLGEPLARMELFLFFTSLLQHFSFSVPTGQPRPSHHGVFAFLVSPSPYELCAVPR
T5 sequence (P33261 whole entry): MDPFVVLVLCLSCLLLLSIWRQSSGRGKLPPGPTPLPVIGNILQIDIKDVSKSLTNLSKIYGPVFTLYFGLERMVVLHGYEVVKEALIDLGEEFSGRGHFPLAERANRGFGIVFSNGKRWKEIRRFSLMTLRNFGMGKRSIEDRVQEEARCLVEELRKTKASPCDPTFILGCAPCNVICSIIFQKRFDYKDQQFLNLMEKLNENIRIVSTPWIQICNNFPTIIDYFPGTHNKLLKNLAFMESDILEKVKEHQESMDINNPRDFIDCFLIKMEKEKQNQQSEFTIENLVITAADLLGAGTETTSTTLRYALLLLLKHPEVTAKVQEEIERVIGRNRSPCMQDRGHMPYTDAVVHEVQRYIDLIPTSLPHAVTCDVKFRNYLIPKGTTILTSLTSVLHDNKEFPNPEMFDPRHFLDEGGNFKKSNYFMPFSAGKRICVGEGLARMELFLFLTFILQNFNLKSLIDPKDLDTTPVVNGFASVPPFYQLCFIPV
T4 sequence (P11712 whole entry): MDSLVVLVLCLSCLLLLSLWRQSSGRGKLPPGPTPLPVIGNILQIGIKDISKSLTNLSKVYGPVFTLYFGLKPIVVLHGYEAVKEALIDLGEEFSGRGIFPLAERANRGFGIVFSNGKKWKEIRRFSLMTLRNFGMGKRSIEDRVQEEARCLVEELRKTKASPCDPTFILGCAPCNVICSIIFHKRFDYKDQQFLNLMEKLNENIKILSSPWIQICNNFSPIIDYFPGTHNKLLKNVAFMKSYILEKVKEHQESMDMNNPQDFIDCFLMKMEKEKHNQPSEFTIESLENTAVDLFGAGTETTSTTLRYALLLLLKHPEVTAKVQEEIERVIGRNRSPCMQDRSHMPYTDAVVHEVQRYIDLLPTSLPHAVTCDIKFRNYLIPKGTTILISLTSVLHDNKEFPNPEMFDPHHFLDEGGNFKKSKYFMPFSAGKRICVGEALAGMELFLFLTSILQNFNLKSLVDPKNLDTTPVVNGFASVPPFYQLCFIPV

inhibition at 10 µM (CYP2C8) [%]	IC50 [1] [nM]	inhibition at 10 µM (CYP1A) [%]	inhibition at 10 µM (CYP2C9) [%]	inhibition at 10 µM (CYP2C19) [%]	inhibition at 10 µM (CYP2B6) [%]	inhibition at 10 µM (CYP2D6) [%]	inhibition at 10 µM (CYP3A4) [%]	inhibition at 10 µM (CYP3A4&5) [%]	Compound
37.5	0.53	2.5	58.9	43	17.6	22.4	~0	13.5	CCCCOC(=O)NS(=O)(=O)c1sc(CC(C)C)cc1-c1ccc(Cn2ccnc2C)cc1 [Example 1, Butyl (5-isobutyl-3-(4-((2-methyl-1H-imidazol-1-yl)methyl)phenyl)thiophen-2-yl)sulfonyl-carbamate]
80.4		90.9			48.8	81.2	95.2	94.2	CCCCOC(=O)NS(=O)(=O)c1sc(CC(C)C)cc1-c1ccc(Cn2ccnc2)cc1 [Example C21, N-butyloxycarbonyl-3-(4-imidazol-1-ylmethylphenyl)-5-isobutylthiophene-2-sulfon-amide, reference compound]
